Source: patent US9302999B2, “Substituted triazoles as herbicides” (E. I. DU PONT DE NEMOURS AND COMPANY, priority 2012, dated 2016)

Experiments:
Format in all cases: in vivo
[1] = system: bromegrass, downy (downy bromegrass, Bromus tectorum); test: Test D pre-/postemergence: bromegrass, downy
Method in brief: (§1)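 Visual control ratings (0–100) after 14–21 days, controlled environment. Preemergence on silt loam; postemergence on 2–18 cm plants.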

[2] = system: bluegrass (annual bluegrass, Poa annua); test: Test D pre-/postemergence: bluegrass
Method in brief: as §1

[3] = system: barley, winter (winter barley, Hordeum vulgare); test: Test D pre-/postemergence: barley, winter
Method in brief: as §1

[4] = system: windgrass (Apera spica-venti); test: Test D pre-/postemergence: windgrass
Method in brief: as §1

[5] = system: barnyardgrass (Echinochloa crus-galli); test: Test C flooded paddy test: barnyardgrass; details: Echinochloa crus-galli, scale 0 to 100 (0 no effect, 100 complete control), read-out: Plant response rating, Barnyardgrass
Method in brief: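 Plants were grown to the 2-leaf stage, pots flooded to 3 cm above soil, and test compounds applied directly to the paddy water, with that depth held throughout. After 13 to 15 days in a greenhouse, injury was visually rated against controls on a 0 (no effect) to 100 (complete control) scale.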

[6] = system: oilseed rape (Brassica napus); test: Test D pre-/postemergence: oilseed rape
Method in brief: as §1

[7] = system: field poppy (Papaver rhoeas); test: Test D pre-/postemergence: field poppy
Method in brief: as §1

[8] = system: foxtail, green (green foxtail, Setaria viridis); test: Test C pre-/postemergence: foxtail, green
Method in brief: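 Preemergence on seeds in loam/sand, postemergence on 2–18 cm (1–4-leaf) plants in peat-based medium; compounds in non-phytotoxic solvent with surfactant. After 13–15 days in greenhouse, visual rating versus controls, 0 (no effect) to 100 (complete control).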

[9] = Postemergence, 31 g ai/ha, scale 0 to 100 (0 no effect, 100 complete control)
[10] = Postemergence, 62 g ai/ha, scale 0 to 100 (0 no effect, 100 complete control)
[11] = Postemergence, 125 g ai/ha, scale 0 to 100, 0 no effect, 100 complete control
[12] = Postemergence, 250 g ai/ha, scale 0 to 100 (0 no effect, 100 complete control)
[13] = Postemergence, 16 g ai/ha, scale 0 to 100
[14] = Preemergence, 16 g ai/ha, scale 0 to 100 (0 no effect, 100 complete control)
[15] = Preemergence, 31 g ai/ha, scale 0 to 100 (0 no effect, 100 complete control)
[16] = Preemergence, 62 g ai/ha, scale 0 to 100
[17] = Preemergence, 125 g ai/ha, scale 0 to 100
[18] = Preemergence, 250 g ai/ha, scale 0 to 100

Cc1nn(-c2ccc(F)cc2)nc1Cc1ccnc(C(F)(F)F)c1 [Compound 16, 4-[[2-(4-fluorophenyl)-5-methyl-2H-1,2,3-triazol-4-yl]methyl]-2-(trifluoromethyl)pyridine]
Plant response rating: Bromegrass, Downy [1, 9]: 10 | Plant response rating: Bromegrass, Downy [1, 10]: 20 | Plant response rating: Bromegrass, Downy [1, 11]: 40 | Plant response rating: Bromegrass, Downy [1, 12]: 50 | Plant response rating, Bromegrass, Downy [1, 13]: 0 | Plant response rating, Bromegrass, Downy [1, 14]: 0 | Plant response rating, Bromegrass, Downy [1, 15]: 20 | Plant response rating, Bromegrass, Downy [1, 16]: 25 | Plant response rating, Bromegrass, Downy [1, 17]: 25 | Plant response rating, Bromegrass, Downy [1, 18]: 40 | Plant response rating: Bluegrass [2, 9]: 20 | Plant response rating: Bluegrass [2, 10]: 40 | Plant response rating: Bluegrass [2, 11]: 60 | Plant response rating: Bluegrass [2, 12]: 70 | Plant response rating, Bluegrass [2, 13]: 10 | Plant response rating, Bluegrass [2, 14]: 0 | Plant response rating, Bluegrass [2, 15]: 20 | Plant response rating, Bluegrass [2, 16]: 20 | Plant response rating, Bluegrass [2, 17]: 30 | Plant response rating, Bluegrass [2, 18]: 100 | Plant response rating: Barley, Winter [3, 9]: 10 | Plant response rating: Barley, Winter [3, 10]: 10 | Plant response rating: Barley, Winter [3, 11]: 25 | Plant response rating: Barley, Winter [3, 12]: 40 | Plant response rating, Barley, Winter [3, 13]: 5 | Plant response rating, Barley, Winter [3, 14]: 0 | Plant response rating, Barley, Winter [3, 15]: 0 | Plant response rating, Barley, Winter [3, 16]: 5 | Plant response rating, Barley, Winter [3, 17]: 10 | Plant response rating, Barley, Winter [3, 18]: 25 | Plant response rating: Windgrass [4, 9]: 10 | Plant response rating: Windgrass [4, 10]: 20 | Plant response rating: Windgrass [4, 11]: 25 | Plant response rating: Windgrass [4, 12]: 35 | Plant response rating, Windgrass [4, 13]: 0 | Plant response rating, Windgrass [4, 14]: 20 | Plant response rating, Windgrass [4, 15]: 20 | Plant response rating, Windgrass [4, 16]: 90 | Plant response rating, Windgrass [4, 17]: 100 | Plant response rating, Windgrass [4, 18]: 100 | pest or weed control at 62 g/ha ([5]; Flood (flooded paddy test), 62 g ai/ha, visual rating after 13 to 15 days): 65% | pest or weed control at 125 g/ha ([5]; Flood (flooded paddy test), 125 g ai/ha, visual rating after 13 to 15 days): 70% | pest or weed control at 250 g/ha ([5]; Flood (flooded paddy test), 250 g ai/ha, visual rating after 13 to 15 days): 80% | pest or weed control at 31 g/ha ([5]; Flood, 31 g ai/ha): 25% | Plant response rating: Oilseed Rape [6, 9]: 70 | Plant response rating: Oilseed Rape [6, 10]: 95 | Plant response rating: Oilseed Rape [6, 11]: 100 | Plant response rating: Oilseed Rape [6, 12]: 100 | Plant response rating, Oilseed Rape [6, 13]: 40 | Plant response rating, Oilseed Rape [6, 14]: 0 | Plant response rating, Oilseed Rape [6, 15]: 0 | Plant response rating, Oilseed Rape [6, 16]: 50 | Plant response rating, Oilseed Rape [6, 17]: 50 | Plant response rating, Oilseed Rape [6, 18]: 100 | Plant response rating: Field Poppy [7, 9]: 100 | Plant response rating: Field Poppy [7, 10]: 100 | Plant response rating: Field Poppy [7, 11]: 100 | Plant response rating: Field Poppy [7, 12]: 100 | Plant response rating, Field Poppy [7, 13]: 0 | Plant response rating, Field Poppy [7, 14]: 100 | Plant response rating, Field Poppy [7, 15]: 100 | Plant response rating, Field Poppy [7, 16]: 100 | Plant response rating, Field Poppy [7, 17]: 100 | Plant response rating, Field Poppy [7, 18]: 100 | Plant response rating, Foxtail, Green [8, 9]: 30 | Plant response rating, Foxtail, Green [8, 10]: 98 | Plant response rating, Foxtail, Green [8, 11]: 98 | Plant response rating, Foxtail, Green ([8]; Preemergence, 31 g ai/ha, scale of 0 to 100, 0 is no effect, 100 is complete control): 100 | Plant response rating, Foxtail, Green ([8]; Preemergence, 62 g ai/ha, scale of 0 to 100, 0 is no effect, 100 is complete control): 100 | Plant response rating, Foxtail, Green ([8]; Preemergence, 125 g ai/ha, scale 0 to 100, 0 no effect, 100 complete control): 100 | Plant response rating, Foxtail, Green ([8]; Preemergence, 250 g ai/ha, scale 0 to 100, 0 no effect, 100 complete control): 100
